Experimental data as given in PMC4428629, “The Structure of an NDR/LATS Kinase–Mob Complex Reveals a Novel Kinase–Coactivator System and Substrate Docking Mechanism” (PLoS Biology, 2015).
No end group written: not given here.

System: Cbk1–Mob2
Assay: In vitro pulldown of Cbk1–Mob2
Assay type: binding, Saccharomyces cerevisiae
Protocol: Cbk1 substrates containing the docking motifs or substrate sites were bacterially expressed as MBP or GST fusions. For pulldown assays, MBP-fusion lysates were incubated with amylose resin (New England Biolabs) on ice for 15 min, followed by washing with PBS (137 mM NaCl, 2.7 mM KCl, 4.3 mM Na2HPO4, 1.4 mM KH2PO4 [pH 7.3]). GST fusions were purified on glutathione Sepharose beads followed by dialysis into Cbk1 buffer.
MBP fusions were incubated on bead with 1 μM purified Cbk1 on ice for 15 min. Samples were washed 3× with PBS (transferred to fresh tube on last wash), resuspended in SDS-PAGE buffer, and separated by SDS-PAGE. Samples were directly visualized with GelCode Blue (Pierce) or transferred to PVDF membrane for immunoblotting. Cbk1 was detected using His or pS570 primary antibodies. For experiments detected using α-pS570, antibody signal with pure protein was analyzed to control for lot-dependent variations in expression as well as variations between Cbk1 mutants (no variations detected).

## Ssd1^208–214: Ssd1 docking fragment used for Cbk1 pulldown (QSDFKFP; UniProt P24276 208-214, looked up, fragment)
Cbk1 F699A mutant (Fig 5B)
  Cbk1 pulldown: not nearby F699A abrogate Cbk1 pulldown
Cbk1 Y687A mutant (Fig 5B)
  Cbk1 pulldown: abrogate Cbk1 pulldown

## 15-amino-acid peptide from Ace2: 15-amino-acid peptide from Ace2 with the sequence YQFP at its C-terminal end (IIVTTNSANGGYQFP; also: MBP fusion, end not given here)
In vitro binding (Figs 4B, S5A, S5E)
  association with Cbk1–Mob2: associates with the Cbk1–Mob2 complex
